Assay results as given in patent US12480075B2, “Perfume delivery system” (FIRMENICH SA, priority 2019, dated 2025).

Assay: Odor threshold concentration (Log T / Log ODT) by gas chromatograph sniff port with panelists
Parameters: species or system human
Conditions: common logarithm of odor threshold concentration of the ingredient
Procedure: “High impact perfume raw materials” should be understood as perfume raw materials having a Log T<−4. The odor threshold concentration of a chemical compound is determined in part by its shape, polarity, partial charges and molecular mass. For convenience, the threshold concentration is presented as the common logarithm of the threshold concentration, i.e., Log [Threshold] (“Log T”).
The odor threshold concentration of a perfuming compound is determined by using a gas chromatograph (“GC”). Specifically, the gas chromatograph is calibrated to determine the exact volume of the perfume oil ingredient injected by the syringe, the precise split ratio, and the hydrocarbon response using a hydrocarbon standard of known concentration and chain-length distribution. The air flow rate is accurately measured and, assuming the duration of a human inhalation to last 12 seconds, the sampled volume is calculated. […] To determine the threshold concentration, solutions are delivered to the sniff port at the back-calculated concentration. A panelist sniffs the GC effluent and identifies the retention time when odor is noticed. The average across all panelists determines the odor threshold concentration of the perfuming compound. The determination of odor threshold is described in more detail in C.

In the case of `C=CCCC(=O)C1=CCCC(C)(C)C1`, the “Log ODT” value is reported as under −4.

In the case of `CC12CCC(CC1)C(C)(C)O2`, the “Log ODT” value is reported as over −4.

In the case of `COc1nccnc1CCCC(C)C`, the “Log ODT” value is reported as under −4.

For `CC1(C)CC=C(CCC=O)CC1`, the “Log ODT” value was over −4.

For `CC(=O)/C=C/C1=C(C)CCCC1(C)C`, the “Log ODT” value was under −4.

For “1-OXA-12-CYCLOHEXADECEN-2-ONE (A) + 1-OXA-13-CYCLOHEXADECEN-2-ONE (B)”, the “Log ODT” value was over −4.

In the case of “2-METHYLBUTYL SALICYLATE (A) + PENTYL SALICYLATE (B)”, the “Log ODT” value is reported as over −4.

In the case of “3,5,6-TRIMETHYL-3-CYCLOHEXENE-1-CARBALDEHYDE (A) + 2,4,6-TRIMETHYL-3-CYCLOHEXENE-1 -CARBALDEHYDE (B)”, the “Log ODT” value is reported as over −4.

For “3,7-DIMETHYL-2,6-NONADIENENITRILE (A) + 3,7-DIMETHYL-3,6-NONADIENENITRILE (B)”, the “Log ODT” value was over −4.

With “3-(4-ETHYLPHENYL)-2,2-DIMETHYLPROPANAL (A) + 3-(2-ETHYLPHENYL)-2,2-DIMETHYLPROPANAL (B)” the “Log ODT” value was over −4.

In the case of “10-UNDECENAL (A) + (9E)-9-UNDECENAL (B) + (9Z)-9-UNDECENAL (C)”, the “Log ODT” value is reported as under −4.

With `C/C=C/C(=O)[C@@H]1[C@@H](C)C=CCC1(C)C` (racemic) the “Log ODT” value was under −4.

In the case of `CC(C)=CCCC(C)C=O` (racemic), the “Log ODT” value is reported as over −4.

For `C=CC(C)CCCC(C)(C)O` (racemic), the “Log ODT” value was over −4.

In the case of `CC(C)CCCC(C)CCO` (racemic), the “Log ODT” value is reported as over −4.

In the case of `CC(C)=CCCC(C)CC=O` (racemic), the “Log ODT” value is reported as over −4.

In the case of `C=CC(C)(CCC=C(C)C)OC(C)=O` (racemic) [(+−)-1,5-DIMETHYL-1-VINYL-4-HEXENYL ACETATE], the “Log ODT” value is reported as over −4.

In the case of `CC1=CCC(C(C)(C)S)CC1` (racemic) [(+−)-2-(4-METHYL-3-CYCLOHEXEN-1-YL)-2-PROPANETHIOL], the “Log ODT” value is reported as under −4.

For `CCCCCCCCCC(C)C=O` (racemic) [(+−)-2-METHYLUNDECANAL], the “Log ODT” value was under -4.

In the case of `CC(C)c1cccc(C(C)CC=O)c1` (racemic) [(+−)-3-(3-ISOPROPYL-1-PHENYL)BUTANAL], the “Log ODT” value is reported as under −4.

For `CCCCCCCC1CCC(=O)O1` (racemic) [(+−)-5-HEPTYLDIHYDRO-2(3H)-FURANONE], the “Log ODT” value was under −4.

In the case of `CC/C=C(\C)C(O)CCCCC` (racemic) [(+−)-(E)-4-METHYL-3-DECEN-5-OL], the “Log ODT” value is reported as over −4.

In the case of `CCOC(=O)C(C)CC` (racemic) [(+−)-ETHYL 2-METHYLBUTANOATE], the “Log ODT” value is reported as over −4.

In the case of `CCCCC[C@H]1C(=O)CC[C@@H]1CC(=O)OC` (racemic) [METHYL 2-((1RS,2RS)-3-OXO-2-PENTYLCYCLOPENTYL)ACETATE], the “Log ODT” value is reported as over −4.

In the case of `CC1=CCC2C[C@@H]1C2(C)C` (single isomer, unassigned; (-)), the “Log ODT” value is reported as over −4.

In the case of `c1ccc(Oc2ccccc2)cc1` [1,1′-OXYDIBENZENE], the “Log ODT” value is reported as over −4.

For `COc1ccc(C)cc1` [1-METHOXY-4-METHYLBENZENE], the “Log ODT” value was over −4.

In the case of `COc1ccc2ccccc2c1` [2-METHOXYNAPHTHALENE], the “Log ODT” value is reported as under −4.

With `CC(=O)OCCc1ccccc1` [2-PHENYLETHYL ACETATE] the “Log ODT” value was over −4.

In the case of `CC(=O)OCCC(C)CCC=C(C)C` (stereo not drawn) [3,7-DIMETHYL-6-OCTENYL ACETATE], the “Log ODT” value is reported as over −4.

For `CC1=CC2CC(C=O)C1CC2C(C)C` (stereo not drawn) [8-ISOPROPYL-6-METHYL-BICYCLO[2.2.2]OCT-5-ENE-2-CARBALDEHYDE], the “Log ODT” value was under −4.

For `CC(=O)O[C@@H]1CC2CC[C@]1(C)C2(C)C` [(1R,2R)-1,7,7-TRIMETHYL-BICYCLO[2.2.1]HEPT-2-YL ACETATE], the “Log ODT” value was over −4.

For `COCCc1ccccc1` [(2-METHOXYETHYL)BENZENE], the “Log ODT” value was over −4.

In the case of `CC/C=C\CCOC(C)=O` [(Z)-3-HEXENYL ACETATE], the “Log ODT” value is reported as over −4.

In the case of `CC/C=C\CCOC(=O)C(C)C` [(Z)-3-HEXENYL ISOBUTYRATE], the “Log ODT” value is reported as over −4.

In the case of `CC1(C)CCC[C@]2(C)[C@H]3CCO[C@]3(C)CC[C@@H]12` [(−)-(3AR,5AS,9AS,9BR)-3A,6,6,9A-TETRAMETHYLDODECAHYDRONAPHTHO[2,1-B]FURAN], the “Log ODT” value is reported as under −4.

With `CCCCCCCCCC=O` [DECANAL] the “Log ODT” value was over −4.

With `CCCCCCOC(=O)c1ccccc1O` [HEXYL 2-HYDROXYBENZOATE] the “Log ODT” value was over -4.

For `CCCCCCOC(C)=O` [HEXYL ACETATE], the “Log ODT” value was over −4.

For `CCCCCCCCCC(C)=O` [Microcapsules 2-UNDECANONE, 2-UNDECANONE], the “Log ODT” value was over −4.

With `CCCCCCCC=O` [OCTANAL] the “Log ODT” value was over −4.

With `O=C1CCCCCCCCCCCCCCO1` [OXACYCLOHEXADECAN-2-ONE] the “Log ODT” value was over −4.

With “(1RS,2RS)-2,4-DIMETHYL-3-CYCLOHEXENE-1-CARBALDEHYDE (A) + (1RS,2SR)-2,4-DIMETHYL-3-CYCLOHEXENE-1-CARBALDEHYDE (B)” the “Log ODT” value was over −4.

With “(2RS,4SR)-4-METHYL-2-(2-METHYL-1-PROPEN-1-YL)TETRAHYDRO-2H-PYRAN (A) + (2RS,4RS)-4-METHYL-2-(2-METHYL-1-PROPEN-1-YL)TETRAHYDRO-2H-PYRAN (B)” the “Log ODT” value was over −4.

For “(2Z)-1,1-DIETHOXY-3,7-DIMETHYL-2,6-OCTADIENE (A) + (2E)-1,1-DIETHOXY-3,7-DIMETHYL-2,6-OCTADIENE (B)”, the “Log ODT” value was over −4.

In the case of “(2Z)-2-TRIDECENENITRILE (A) + (3Z)-3-TRIDECENENITRILE (B) + (3E)-3-TRIDECENENITRILE (C) + (2E)-2-TRIDECENENITRILE (D)”, the “Log ODT” value is reported as under −4.

In the case of “(+)-(3S)-3-[(1R)-4-METHYL-3-CYCLOHEXEN-1-YL]BUTANAL (A) + (+)-(3R)-3-[(1R)-4-METHYL-3-CYCLOHEXEN-1-YL]BUTANAL”, the “Log ODT” value is reported as over −4.

In the case of “(+−)-4-METHYLENE-2-PHENYLTETRAHYDRO-2H-PYRAN (A) + (+−)-4-METHYL-6-PHENYL-3,6-DIHYDRO-2H-PYRAN (B) + (+−)-4-METHYL-2-PHENYL-3,6-DIHYDRO-2H-PYRAN (C)”, the “Log ODT” value is reported as under −4.

For “(+−)-(3E)-3-METHYL-4-(2,6,6-TRIMETHYL-2-CYCLOHEXEN-1-YL)-3-BUTEN-2-ONE (A) + (+−)-(1E)-1-(2,6,6-TRIMETHYL-2-CYCLOHEXEN-1-YL)-1-PENTEN-3-ONE (B)”, the “Log ODT” value was under −4.

For “.ALPHA.-DIHYDROTERPINEOL (A) + .BETA.-DIHYDROTERPINEOL (B)”, the “Log ODT” value was over −4.

With “TRICYCLO[5.2.1.0~2,6~]DEC-3-EN-8-YL ACETATE (A) + TRICYCLO[5.2.1.0~2,6~]DEC-4-EN-8-YL ACETATE (B)” the “Log ODT” value was over −4.
